The target of the assay is T1, LXRβ (Homo sapiens, UniProt P55055).
T1 construct: Co-transfection expression plasmids, comprising full-length LXRα (pCMX-h LXRα[…] or LXRβ (pCMX-hLXRβ)); expressed in transfected cells; host or cells: CV-1 African Green Monkey Kidney Cells
T1 sequence (P55055 1-460): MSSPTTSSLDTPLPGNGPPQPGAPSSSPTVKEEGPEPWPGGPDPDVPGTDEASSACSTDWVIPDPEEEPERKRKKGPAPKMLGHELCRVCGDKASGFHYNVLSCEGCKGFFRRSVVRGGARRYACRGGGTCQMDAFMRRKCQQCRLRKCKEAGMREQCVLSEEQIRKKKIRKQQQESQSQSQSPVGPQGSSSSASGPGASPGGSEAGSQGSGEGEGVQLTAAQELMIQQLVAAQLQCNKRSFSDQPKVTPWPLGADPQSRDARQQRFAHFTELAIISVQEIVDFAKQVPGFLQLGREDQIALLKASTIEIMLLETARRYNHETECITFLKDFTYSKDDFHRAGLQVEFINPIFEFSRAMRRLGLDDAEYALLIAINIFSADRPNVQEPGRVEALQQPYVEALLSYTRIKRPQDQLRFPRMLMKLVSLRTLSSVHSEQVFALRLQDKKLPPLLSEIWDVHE
T1 sequence (P19793 1-462 partner): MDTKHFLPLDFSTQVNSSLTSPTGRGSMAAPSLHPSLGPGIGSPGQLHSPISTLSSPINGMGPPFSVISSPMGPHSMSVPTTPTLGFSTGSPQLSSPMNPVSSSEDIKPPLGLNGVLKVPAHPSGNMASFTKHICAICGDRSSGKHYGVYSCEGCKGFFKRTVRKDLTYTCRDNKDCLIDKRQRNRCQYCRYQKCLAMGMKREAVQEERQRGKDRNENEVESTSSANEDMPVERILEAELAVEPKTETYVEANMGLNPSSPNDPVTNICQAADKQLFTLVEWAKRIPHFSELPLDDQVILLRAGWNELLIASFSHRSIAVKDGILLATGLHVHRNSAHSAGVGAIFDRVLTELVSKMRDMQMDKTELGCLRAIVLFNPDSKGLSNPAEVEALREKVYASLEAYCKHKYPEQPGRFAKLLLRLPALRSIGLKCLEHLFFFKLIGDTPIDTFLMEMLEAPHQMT
Briefly: Co-transfection assay (LXRE luciferase reporter), LXRβ. It is filed as cell-based. Conditions: for EC50: CV-1 cells transfected with pCMX-hLXRβ and LXREx1-Tk-Luciferase, 20 hours incubation; for Emax: LXRβ co-transfection, relative to high control 1-(2,4-difluorobenzyl)-2-oxo-6-(4-phenoxyphenyl)-4-(trifluoromethyl)-1,2-dihydropyridine-3-carbonitrile, read-out: % Efficacy. The method in brief:
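CV-1 / pCMX-hLXRβ + LXREx1-Tk-Luc + β-gal; cpd 20 h, 37 °C, ≤0.5% DMSO; Steady-Glo luminescence. 11-pt ½-log curves, duplicate wells, sigmoidal fit → EC50; % efficacy vs high-control agonist, DMSO low control; mean of ≥2 expts.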

This note sets out measurements from patent US9834542B2, “LXR modulators” (BRISTOL-MYERS SQUIBB COMPANY, priority 2013, dated 2017).

Each structure is given as a SMILES string.

On to `Cc1nc(-c2cc(-c3cc(F)c(CO)c(S(C)(=O)=O)c3)ccc2-n2cc(C(F)(F)F)nc2C)c(-c2ccc(OCC3CC3)c(F)c2)o1` [Example 405, (3′-(5-(4-(cyclopropylmethoxy)-3-fluorophenyl)-2-methyloxazol-4-yl)-3-fluoro-4′-(2-methyl-4-(trifluoromethyl)-1H-imidazol-1-yl)-5-(methylsulfonyl)biphenyl-4-yl)methanol], for which the half-maximal effective concentration (EC50) was 68 nM and the Emax is 59%.
As to `Cc1nc(-c2cc(-c3cccc(S(C)(=O)=O)c3)ccc2-n2cc(C(F)(F)F)nc2C)c(-c2ccc(OC(CF)CF)c(F)c2)o1` [Example 406, 5-(4-(1,3-difluoropropan-2-yloxy)-3-fluorophenyl)-2-methyl-4-(4-(2-methyl-4-(trifluoromethyl)-1H-imidazol-1-yl)-3′-(methylsulfonyl)biphenyl-3-yl)oxazole], the EC50 was determined as 181 nM and the Emax came to 68%.
Take `Cc1nc(-c2cc(-c3cc(F)c(CO)c(S(C)(=O)=O)c3)ccc2-n2cc(C(F)(F)F)nc2C)c(-c2ccc(OC(CF)CF)c(F)c2)o1` [Example 407, (3′-(5-(4-(1,3-difluoropropan-2-yloxy)-3-fluorophenyl)-2-methyloxazol-4-yl)-3-fluoro-4′-(2-methyl-4-(trifluoromethyl)-1H-imidazol-1-yl)-5-(methylsulfonyl)biphenyl-4-yl)methanol]: a half-maximal effect (EC50) was put at 118 nM and the Emax came to 70%.
On the same counts, the results for `Cc1nc(-c2cc(-c3cccc(S(C)(=O)=O)c3)ccc2-n2cc(C(F)(F)F)nc2C)c(-c2ccc(OC3CCCCC3)nc2)o1` [Example 408, 5-(6-(cyclohexyloxy)pyridin-3-yl)-2-methyl-4-(4-(2-methyl-4-(trifluoromethyl)-1H-imidazol-1-yl)-3′-(methylsulfonyl)biphenyl-3-yl)oxazole] are 332 nM and 55%.
On the same counts, the results for `Cc1nc(-c2cc(-c3cc(F)c(CO)c(S(C)(=O)=O)c3)ccc2-n2cc(C(F)(F)F)nc2C)c(-c2ccc(OC3CCCCC3)nc2)o1` [Example 409, (3′-(5-(6-(cyclohexyloxy)pyridin-3-yl)-2-methyloxazol-4-yl)-3-fluoro-4′-(2-methyl-4-(trifluoromethyl)-1H-imidazol-1-yl)-5-(methylsulfonyl)biphenyl-4-yl)methanol] are 130 nM and 45%.
The like results for `Cc1nc(-c2cc(-c3cccc(S(C)(=O)=O)c3)ccc2-n2cc(C(F)(F)F)nc2C)c(-c2ccc(OC3CCCC3)nc2)o1` [Example 410, 5-(6-(cyclopentyloxy)pyridin-3-yl)-2-methyl-4-(4-(2-methyl-4-(trifluoromethyl)-1H-imidazol-1-yl)-3′-(methylsulfonyl)biphenyl-3-yl)oxazole] were, in that order, 204 nM and 49%.
Consider `Cc1nc(-c2cc(-c3cc(F)c(CO)c(S(C)(=O)=O)c3)ccc2-n2cc(C(F)(F)F)nc2C)c(-c2ccc(OC3CCCC3)nc2)o1` [Example 411, (3′-(5-(6-(cyclopentyloxy)pyridin-3-yl)-2-methyloxazol-4-yl)-3-fluoro-4′-(2-methyl-4-(trifluoromethyl)-1H-imidazol-1-yl)-5-(methylsulfonyl)biphenyl-4-yl)methanol], for which the midpoint of the response, the EC50, lay at 255 nM and the Emax was determined as 60%.
For the molecule `COc1cnc(-c2oc(C)nc2-c2cc(-c3cccc(S(C)(=O)=O)c3)ccc2-n2cc(C(F)(F)F)nc2C)cn1` [Example 412, 5-(5-methoxypyrazin-2-yl)-2-methyl-4-(4-(2-methyl-4-(trifluoromethyl)-1H-imidazol-1-yl)-3′-(methylsulfonyl)biphenyl-3-yl)oxazole], the 50% effective concentration (EC50) came to 518 nM and the Emax was 72%.
The like results for `COc1cnc(-c2oc(C)nc2-c2cc(-c3cc(F)c(CO)c(S(C)(=O)=O)c3)ccc2-n2cc(C(F)(F)F)nc2C)cn1` [Example 413, (3-fluoro-3′-(5-(5-methoxypyrazin-2-yl)-2-methyloxazol-4-yl)-4′-(2-methyl-4-(trifluoromethyl)-1H-imidazol-1-yl)-5-(methylsulfonyl)biphenyl-4-yl)methanol] were, in that order, 426 nM and 63%.
For the molecule `COc1ncc(-c2oc(C)nc2-c2cc(-c3cccc(S(C)(=O)=O)c3)ccc2-n2cc(C(F)(F)F)nc2C)cn1` [Example 414, 5-(2-methoxypyrimidin-5-yl)-2-methyl-4-(4-(2-methyl-4-(trifluoromethyl)-1H-imidazol-1-yl)-3′-(methylsulfonyl)biphenyl-3-yl)oxazole], the response was half-maximal at 657 nM (EC50) and the Emax came out at 70%.
On the same counts, the results for `COc1ncc(-c2oc(C)nc2-c2cc(-c3cc(F)c(CO)c(S(C)(=O)=O)c3)ccc2-n2cc(C(F)(F)F)nc2C)cn1` [Example 415, (3-fluoro-3′-(5-(2-methoxypyrimidin-5-yl)-2-methyloxazol-4-yl)-4′-(2-methyl-4-(trifluoromethyl)-1H-imidazol-1-yl)-5-(methylsulfonyl)biphenyl-4-yl)methanol] are 1500 nM and 86%.
On the same counts, the results for `Cc1nc(-c2cc(-c3cccc(S(=O)(=O)C4CC4)c3)ccc2-n2cc(C(F)(F)F)nc2C)c(-c2ccc3c(c2)OC(F)(F)O3)o1` [Example 416] are 30 nM and 76%.
For `Cc1nc(-c2cc(-c3cccc(S(=O)(=O)C(F)F)c3)ccc2-n2cc(C(F)(F)F)nc2C)c(-c2ccc3c(c2)OC(F)(F)O3)o1` [Example 417, 5-(2,2-difluorobenzo[d][1,3]dioxol-5-yl)-4-(3′-(difluoromethylsulfonyl)-4-(2-methyl-4-(trifluoromethyl)-1H-imidazol-1-yl)biphenyl-3-yl)-2-methyloxazole], the EC50 came to 43 nM and the Emax turned out to be 56%.
`Cc1nc(-c2cc(-c3cccc(C(=O)N(C)C)c3)ccc2-n2cc(C(F)(F)F)nc2C)c(-c2ccc3c(c2)OC(F)(F)O3)o1` [Example 418, 3′-(5-(2,2-difluorobenzo[d][1,3]dioxol-5-yl)-2-methyloxazol-4-yl)-N,N-dimethyl-4′-(2-methyl-4-(trifluoromethyl)-1H-imidazol-1-yl)biphenyl-3-carboxamide]: the EC50 worked out at 740 nM and the Emax was 73%.
On the same counts, the results for `Cc1nc(-c2cc(-c3cccc(S(C)(=O)=O)c3)ccc2-n2cc(C(F)(F)F)nc2C)c(-c2ccc3c(c2)CC(C)(C)O3)o1` [Example 419, 5-(2,2-dimethyl-2,3-dihydrobenzofuran-5-yl)-2-methyl-4-(4-(2-methyl-4-(trifluoromethyl)-1H-imidazol-1-yl)-3′-(methylsulfonyl)biphenyl-3-yl)oxazole] are 145 nM and 66%.
As for `Cc1nc(-c2cc(-c3cc(F)c(CO)c(S(C)(=O)=O)c3)ccc2-n2cc(C(F)(F)F)nc2C)c(-c2ccc3c(c2)CC(C)(C)O3)o1` [Example 420, (3′-(5-(2,2-dimethyl-2,3-dihydrobenzofuran-5-yl)-2-methyloxazol-4-yl)-3-fluoro-4′-(2-methyl-4-(trifluoromethyl)-1H-imidazol-1-yl)-5-(methylsulfonyl)biphenyl-4-yl)methanol], the EC50 was found to be 82 nM and the Emax is 86%.
Regarding `Cc1nc(-c2cc(-c3cc(F)c(CO)c(S(C)(=O)=O)c3)ccc2-n2cc(C(F)(F)F)nc2C)c(-c2cncc(Cl)c2)o1` [Example 421, (3′-(5-(5-chloropyridin-3-yl)-2-methyloxazol-4-yl)-3-fluoro-4′-(2-methyl-4-(trifluoromethyl)-1H-imidazol-1-yl)-5-(methylsulfonyl)biphenyl-4-yl)methanol], the response was half-maximal at 218 nM (EC50) and the Emax worked out at 76%.
The like results for `Cc1ccc(-c2oc(C)nc2-c2cc(-c3cccc(S(C)(=O)=O)c3)ccc2-n2cc(C(F)(F)F)nc2C)c(Cl)n1` [Example 422, 5-(2-chloro-6-methylpyridin-3-yl)-2-methyl-4-(4-(2-methyl-4-(trifluoromethyl)-1H-imidazol-1-yl)-3′-(methylsulfonyl)biphenyl-3-yl)oxazole] were, in that order, 110 nM and 74%.
